Like-named read-outs stand apart in the source and are kept apart here. Where only a bound is given, the exact number is not on record here.

One series deals with chymotrypsin. As to the kind of experiment: Selectivity versus serine proteases: chymotrypsin. In kind it is biochemical. The following applies: 100 μM.
Series [1] has as its target T1, Cathepsin B from human placenta (Homo sapiens, UniProt P07858).
T1 construct: Cathepsin B from human placenta, obtained from Sigma; purchased Sigma; host or cells: human placenta (tissue)
The series can be described thus: Inhibition of cathepsin B, Z-Arg-Arg-AMC fluorescence progress curves. In kind it is biochemical. As to conditions: for Ki: corrected for substrate; for k/KI (kirr/KI): values without asterisk; for k/KI (kirr/KI) / kobs /[I]* (approximate second-order inactivation constant): 25° C., pH 6.2; for kobs /[I]* (approximate second-order inactivation constant): values marked *. In short, it runs like this:
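Human placental enzyme (~10 nM) in 50 mM phosphate pH 6.2 with 2.5 mM DTT and 2.5 mM EDTA, 50 μM Z-Arg-Arg-AMC, inhibitors 30-0.001 μM, 25° C. AMC fluorescence (ex 380/em 460 nm) progress curves fitted for kobs; kobs/[I] reported, with kirr, KI and kirr/KI substrate-corrected for selected compounds.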

Series [2] has as its target T2, Cathepsin L from rat liver (Rattus norvegicus, UniProt P07154).
T2 construct: Cathepsin L from rat liver; from tissue; host or cells: rat liver
As to the kind of experiment: Inhibition of cathepsin L, Z-Phe-Arg-AMC fluorescence progress curves. The following applies: for kobs /[I]* (approximate second-order inactivation constant): values marked *. In kind it is biochemical. In short, it runs like this:
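Progress curves of AMC release (380/460 nm) over at least 3 inactivation half-times were fitted to kobs, reported as kobs/[I] or, via 1/[I] vs 1/kobs, kirr, KI (substrate-corrected) and kirr/KI.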

In another series the target is T3, Cloned cathepsin S (Homo sapiens, UniProt P25774).
T3 construct: made in house
As to the kind of experiment: Inhibition of cathepsin S, Z-Val-Val-Arg-AMC fluorescence progress curves. As to conditions: for kobs /[I]* (approximate second-order inactivation constant): values marked *, 25° C., pH 6.5. In kind it is biochemical. A digest of the protocol: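 Fluorescence (380 nm excitation, 460 nm emission) was followed after adding sub-nM enzyme to pH 6.5 phosphate buffer with DTT, EDTA, Triton, 10 μM Z-VVR-AMC and 30-0.001 μM inhibitor at 25 °C. Fitted kobs values gave apparent kobs/[I]; for some, double-reciprocal plots gave kirr, KI and kirr/KI, KI corrected by 1+[S]/Km.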

In another series the target is cruzain, from T. cruzi (Trypanosoma cruzi, UniProt P25779). As to the kind of experiment: Inhibition of cruzain, as for cathepsin L. In kind it is biochemical. The following applies: values marked *. In short, it runs like this: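 Run as for cathepsin L with 1 nM cruzain in 50 mM phosphate pH […], 2.5 mM DTT, 2.5 mM EDTA, 5 μM Z-Phe-Arg-AMC, at 25 °C, inhibitors 30-0.001 μM; fluorescence (ex 380/em 460 nm) followed continuously. kobs fitted from progress curves and kobs/[I] reported; selected compounds gave kirr, KI, kirr/KI, with KI corrected by (1+[S]/Km).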

Series [3] in a line: Stability of selected inhibitors toward glutathione (Ellmans reagent). As to conditions: inhibitor 5 mM, GSH 0.3 mM. In kind it is physicochemical. The method, then:
The inhibitors (5 mM) were incubated with glutathione (GSH) (0.3 mM) in phosphate buffer (50 mM) at pH=6.2 containing 15% DMF at 20° C. Periodically, 50 μL samples were added to 1 mL of buffer and treated with 10 μL of 30 mM Ellmans reagent and the absorbance measured at 412 nm.
(DTNB colorimetry detects thiols as they appear.)

For series [4], the system named is human malarial parasite Plasmodium falciparum. The series can be described thus: In vitro protease activity of malarial parasite, substrate Z-Phe-Arg-AMC. In kind it is biochemical. As to conditions: read-out: P. falciparum IC50 (human). The source says:
(§1) The following table summarizes the comparative IC50 values for selected cysteine protease inhibitors against the human malarial parasite Plasmodium falciparum and the mouse malarial parasite Plasmodium vinckei. The substrate used to measure in vitro protease activity was Z-Phe-Arg-AMC.

Series [5] deals with mouse malarial parasite Plasmodium vinckei. The description is as above. In kind it is biochemical. The following applies: read-out: P. vinckei IC50 (murine).
From the text: as §1

For another series, the system named is calpain. The series can be described thus: Inhibition (inactivation) of calpain, Suc-Leu-Tyr-AMC. In kind it is biochemical. The following applies: values marked * (or %); pH 7.5, 5 mM CaCl2, 25° C. How it is done:
The inhibitors were tested against calpain at 1 or 2% as for the other enzymes. The reaction conditions were 50 mM Tris, pH 7.5, 5 mM CaCl2, 2.5 mM DTT, assayed at 25° C. The substrate was 100 μM Suc-Leu-Tyr-AMC.

The subject of another series is P. carinii. As to the kind of experiment: Growth of P. carinii in vitro. In kind it is cell-based. The following applies: 10 mM each. The method, then: Mu-Leu-HphVSPh and Mu-Phe-LysVSPh.HBr were evaluated for their effects on the growth of P. carinii in vitro, according to the procedure of M. S. Bartlett et al. [Antimicrotubule Benzimidazoles Inhibit In Vitro Growth of P. carinii, M. S. Bartlett, T. D. Edlind, M. M. Durkin, M. M. Shaw, S. F. Queener, and J. W. Smith, (1992) Antimicrobial Agents and Chemotherapy, 36, 779-782; Antimicrobial susceptibility of P. carinii in culture, M. S. Bartlett, R. Eichholtz, and J. W. Smith (1985) Diagn. Microbiol. Infect. Dis.; 3, 381-387. Mu-Leu-HphVSPh and Mu-Phe-LysVSPh.HBr (10 mM each) inhibited the growth of P. carinii 64% and 50% respectively.

The test system of another series is T. cruzi. The series can be described thus: T. cruzi infected irradiated J774 cells. In kind it is cell-based. On the set-up: dose or concentration left out as unconfirmed. The following applies: thereafter without inhibitor; compounds listed in decreasing order of effectiveness. How it is done:
Irradiated J774 cells were infected with T. cruzi and simultaneously treated with […] of peptidyl vinyl derivatives for 5 days; thereafter without inhibitor. The following compounds were effective in decreasing order: Mu-Phe-ArgVSPh, Boc-Tyr(I2)-HphVSPh, Mu-Phe-VaIVSPh, Boc-Tic-HphVSPh, Mu-Phe-Ser(OBzl)VSPh, Mu-Leu-HphVSPh, Mu-Tyr(I2)-HphVSPh, Mu-Phe-LysVSPh, Mu-Tic-HphVSPh.

The test system of a further series is U251MGn. The series can be described thus: Matrigel barrier migration assay, U251MGn. In kind it is cell-based, human. On the set-up: dose or concentration left out as unconfirmed. The method, then:
(§2) Two permanent human glioma cell lines (U87MG and U251MGn) and a well characterized low passage primary culture derived from a CB-positive glioblastoma (HF66) were used to assess the migratory behavior in the Matrigel barrier migration assay in the presence of graded concentrations of four compounds.
(§3) Using the Matrigel assay, Mu-Leu-HphVSPh, Mu-Tyr-HphVSPh, Mu-Phe-HphVSPh, and Mu-Tyr(I2)-HphVSPh (all at 10 mM) inhibited U251MGn by 67, 56, 29, & 20% respectively, while the U87MG cells were inhibited 53, 75, 63, & 56% respectively. The primary culture HF66 cells were inhibited only 10% by these compounds at the same concentration.

For another series, the system named is U87MG. The series can be described thus: Matrigel barrier migration assay, U87MG. In kind it is cell-based, human. Set-up: dose or concentration left out as unconfirmed. How it is done:
as §2, §3

Sequence of cruzain, from T. cruzi (P25779 123-337 limits assumed): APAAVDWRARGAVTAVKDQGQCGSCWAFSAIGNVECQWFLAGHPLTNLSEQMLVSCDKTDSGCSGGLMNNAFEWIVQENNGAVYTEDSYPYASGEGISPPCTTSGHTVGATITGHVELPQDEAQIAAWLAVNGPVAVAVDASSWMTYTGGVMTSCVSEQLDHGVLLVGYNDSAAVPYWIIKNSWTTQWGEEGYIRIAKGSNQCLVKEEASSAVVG
T2 sequence (P07154 114-288 limits assumed): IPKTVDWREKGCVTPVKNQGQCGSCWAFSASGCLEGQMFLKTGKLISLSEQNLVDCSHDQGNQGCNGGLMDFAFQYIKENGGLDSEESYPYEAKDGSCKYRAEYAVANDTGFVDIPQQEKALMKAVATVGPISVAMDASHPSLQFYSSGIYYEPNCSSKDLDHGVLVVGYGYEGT
T2 sequence (P07154 291-334 limits assumed): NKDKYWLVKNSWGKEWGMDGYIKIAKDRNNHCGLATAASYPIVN
T3 sequence (P25774 115-331): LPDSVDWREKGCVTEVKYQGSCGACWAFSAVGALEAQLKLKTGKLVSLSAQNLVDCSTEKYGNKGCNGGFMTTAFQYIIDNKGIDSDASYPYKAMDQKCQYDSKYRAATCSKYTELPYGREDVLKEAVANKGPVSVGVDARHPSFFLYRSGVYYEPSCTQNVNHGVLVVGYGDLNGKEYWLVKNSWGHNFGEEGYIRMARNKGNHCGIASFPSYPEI

As to `C[C@H](NC(=O)OC(C)(C)C)C(=O)N[C@H](/C=C/S(=O)(=O)c1ccccc1)Cc1ccccc1` [Boc-Ala-PheVSPh], in the series on chymotrypsin (100 mM TRIS buffer at pH=7.5), the binding to chymotrypsin entry was “did not bind”. For the same molecule, in the series with chymotrypsin (pH=7.5, after 1 hour), the inactivation of chymotrypsin result is reported as “nor did it inactivate”.

As a reminder, the Ki is the equilibrium dissociation constant of an inhibitor or competing ligand from its target. By IC50 is commonly meant the point on the concentration scale where inhibition reaches its midpoint. On to `CS(=O)(=O)/C=C/[C@H](CCc1ccccc1)NC(=O)[C@H](Cc1ccccc1)NC(=O)N1CCOCC1` [Mu-Phe-HphVSMe, (S)-(E)-5-(4-morpholinecarbonylphenylalanyl)amino-7-phenyl-2-thia-3-heptene 2,2-dioxide], for which the figures for the kirr (in series [1]; at Cloned cathepsin S) were 0.13 s⁻¹ and 0.10 s⁻¹, respectively. Besides, the values for the Ki (in series [1]; on Cloned cathepsin S (corrected for substrate)) were 26000 nM and 88 nM, respectively. Also, the “k/KI (kirr/KI)” value in [1] turned out to be 5100 M⁻¹ s⁻¹. Besides, the “kobs /[I]* (approximate second-order inactivation constant)” value in [2] (25° C., pH 6.2) was 8700 M⁻¹ s⁻¹; on cruzain, from T. cruzi it was 22,000 M^-1 sec^-1. In series [3] (after 24 hours, pH=6.2, 15% DMF, 20° C.), the “reaction with GSH” value is reported as “no measurable reaction”. In addition, the IC50 in series [4] (cells printed in μM) and in [5] (cells printed in μM) was 1 µM each time.

For the molecule `Br.NCCCC[C@@H](/C=C/S(=O)(=O)c1ccccc1)NC(=O)[C@H](Cc1ccccc1)NC(=O)N1CCOCC1` [Mu-Phe-LysVSPh.HBr, (G)-(E)-7-amino-3-(4-morpholinecarbonylphenylalanyl)amino-1-phenylsulfonyl-1-heptene hydrobromide], the “kobs /[I]* (approximate second-order inactivation constant)” value in [1] was 11,300 M^-1 sec^-1; in [2] (25° C., pH 6.2), 220,000 M^-1 sec^-1; at Cloned cathepsin S it was 10,700,000 M^-1 sec^-1; on cruzain, from T. cruzi it was 149,000 M^-1 sec^-1. Also, the “k/KI (kirr/KI)” value in [1] is given as 11,700 M^-1 sec^-1; in series [2] (values without asterisk, 25° C., pH 6.2) it was 110,000 M^-1 sec^-1. In series [2], the kirr is 0.16 s⁻¹. Further, the Ki in [2] (corrected for substrate) came out at 1400 nM. In addition, the “kobs /[I]*” value in the series with calpain was less than 50 M⁻¹ s⁻¹. Besides, the “second order rate constant for the loss of GSH” value in series [3] (pH=6.2, 20° C.) stood at 0.00055 M⁻¹ s⁻¹. The results for the IC50 in series [4] (cells printed in nM) and in series [5] (cells printed in nM) were 0.1 µM and 0.06 µM, respectively. The “inhibition of the growth of P. carinii” value with P. carinii worked out at 50%. In addition, in the series on T. cruzi, the “effectiveness against T. cruzi in J774 cells” value is “effective”.

With `O=C(N[C@H](/C=C/S(=O)(=O)c1ccccc1)CCc1ccccc1)C(Cc1cc(I)c(O)c(I)c1)NC(=O)N1CCOCC1` (stereo partly drawn) [Mu-Tyr(I2)-HphVSPh, (S)-(E)-3-[4-morpholinecarbonyl-(3,5-diiodotyrosyl)]-amino-5-phenyl-1-phenylsulfonyl-1-pentene], in [1], the kirr was 0.18 s⁻¹, the Ki came to 4700 nM and the “k/KI (kirr/KI)” value is 39,200 M^-1 sec^-1. Moreover, the “kobs /[I]* (approximate second-order inactivation constant)” value in series [2] (25° C., pH 6.2) was 190,000 M^-1 sec^-1. Moreover, the “kobs /[I]* (approximate second-order inactivation constant)” value on Cloned cathepsin S was > 7,300,000 M^-1 sec^-1. Besides, at cruzain, from T. cruzi, the “kobs /[I]* (approximate second-order inactivation constant)” value is given as 114,000 M^-1 sec^-1. Further, the “effectiveness against T. cruzi in J774 cells” value in the series with T. cruzi is listed as “effective”. The “inhibition of U251MGn migration” value in the series on U251MGn was 20%. Further, the “inhibition of U87MG migration” value in the series with U87MG came to 56%.

Take “(S)-(E)-3-(4-morpholinecarbonyltyrosyl)amino-5-phenyl-1-phenylsulfonyl-1-pentene [Mu-Tyr-HphVSPh]”: the “kobs /[I]* (approximate second-order inactivation constant)” value in [1] is 20,000 M^-1 sec^-1; in series [2] (25° C., pH 6.2) it was 700,000 M^-1 sec^-1; on Cloned cathepsin S, 4,200,000 M^-1 sec^-1; on cruzain, from T. cruzi it was 297,000 M^-1 sec^-1. The “inhibition of U251MGn migration” value in the series on U251MGn was determined as 56%. Also, in the series with U87MG, the “inhibition of U87MG migration” value stood at 75%.

Source of the values: patent US6287840A (Axys Pharmaceuticals, Inc., priority 1999, dated 2001).
